Values of other authors as cited in patent US7148216B2, “Combinations of drugs for the treatment of neoplastic disorders” (CombinatoRx, Inc., priority 2000, dated 2006).
Read-outs that look alike come from different tables or passages of the source.

Question: What does the source list for N=C(N)c1ccc(OCCCCCOc2ccc(C(=N)N)cc2)cc1 [pentamidine isethionate, 4,4′-diamidino-diphenoxypentane di(β-hydroxyethanesulfonate)]?
Answer: solubility (in ether, acetone, and chloroform): insoluble; solubility (in water and glycerin): soluble
